The values that follow come from US8084456B2, “Pyrazine-based tubulin inhibitors” (YM Biosciences Australia Pty Ltd, priority 2002, dated 2011).

Experiment [1] concerns the target TelJak2 (Homo sapiens, UniProt O60674). Kind of experiment: Cellular growth assay (MTT), BaF3 TEL/JAK2 cells. The format is cell-based. Particulars: 40 hr incubation, read-out: TelJak2 (inhibition of 50% of cellular growth).
Experiment [2] deals with K562 (Chronic Myeloid Leukemia) cells. Kind of experiment: Cellular growth assay (MTT), K562. The format is cell-based. Particulars: Homo sapiens, 40 hr incubation, read-out: K562 (inhibition of 50% of cellular growth). The protocol: (§1) K562 (Chronic Myeloid Leukemia), PC3 (Prostate Cancer), and DU145 (Prostate Cancer) were obtained from the American Type Culture Collection (ATCC). K562 was grown in RPMI, with 10% FBS with Glutamx added. DU145 cells were cultured in DMED, with 10% FBS and Glutamx and MEM non-essential amino acids added. PC3 cells were grown in F12K medium, with 10% FBS and Glutamx and MEM non-essential amino acids added. All cells were grown at 37° C. in 5% CO2.

Experiment [3] relates to PC3 (Prostate Cancer) cells. As to the kind of experiment: Cellular growth assay (MTT), PC3. In kind it is cell-based. The note with it: Homo sapiens, PC-3, 40 hr incubation, read-out: PC3 (inhibition of 50% of cellular growth). The protocol: as §1
For experiment [4], the system named is Tubulin. As to the kind of experiment: Tubulin assay (turbidometric microtubule assembly). Particulars: at 50 μM, absorbance at 340 nm, 37° C. In kind it is biochemical. The protocol: Turbidometric assays of microtubule assembly were performed by incubating microtubule protein in cuvettes at 37° C. in a thermostatically controlled spectrophotometer measuring the change in absorbance at 340 nm over time. The microtubule protein was incubated with the each test compound at 0° C. and polymerisation was initiated by addition of 1 mM GTP, prior to heating to 37° C.

Experiment [5] deals with TelJak3 (Homo sapiens, UniProt P52333). Kind of experiment: Cellular growth assay (MTT), BaF3 TEL/JAK3 cells. Particulars: 40 hr incubation, read-out: TelJak3 (inhibition of 50% of cellular growth). The format is cell-based.
Experiment [6] relates to DU145 (Prostate Cancer) cells. Kind of experiment: Cellular growth assay (MTT), DU145. In kind it is cell-based. The note with it: Homo sapiens, DU-145, 40 hr incubation, read-out: DU145 (inhibition of 50% of cellular growth). The protocol: as §1

TelJak2, sequence (O60674 with tags, fused parts or gaps): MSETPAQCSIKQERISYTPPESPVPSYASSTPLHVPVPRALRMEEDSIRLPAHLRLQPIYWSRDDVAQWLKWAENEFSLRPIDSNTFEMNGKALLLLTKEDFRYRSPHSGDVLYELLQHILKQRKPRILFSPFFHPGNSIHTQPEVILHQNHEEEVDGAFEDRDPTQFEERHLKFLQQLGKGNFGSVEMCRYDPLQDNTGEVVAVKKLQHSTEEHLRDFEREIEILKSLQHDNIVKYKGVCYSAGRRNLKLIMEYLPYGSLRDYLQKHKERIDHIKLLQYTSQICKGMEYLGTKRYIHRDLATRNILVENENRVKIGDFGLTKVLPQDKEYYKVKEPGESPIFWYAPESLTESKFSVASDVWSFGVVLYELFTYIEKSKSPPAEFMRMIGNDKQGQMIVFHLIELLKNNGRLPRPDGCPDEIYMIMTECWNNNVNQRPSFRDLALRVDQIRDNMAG
TelJak3, sequence (P52333 with tags, fused parts or gaps): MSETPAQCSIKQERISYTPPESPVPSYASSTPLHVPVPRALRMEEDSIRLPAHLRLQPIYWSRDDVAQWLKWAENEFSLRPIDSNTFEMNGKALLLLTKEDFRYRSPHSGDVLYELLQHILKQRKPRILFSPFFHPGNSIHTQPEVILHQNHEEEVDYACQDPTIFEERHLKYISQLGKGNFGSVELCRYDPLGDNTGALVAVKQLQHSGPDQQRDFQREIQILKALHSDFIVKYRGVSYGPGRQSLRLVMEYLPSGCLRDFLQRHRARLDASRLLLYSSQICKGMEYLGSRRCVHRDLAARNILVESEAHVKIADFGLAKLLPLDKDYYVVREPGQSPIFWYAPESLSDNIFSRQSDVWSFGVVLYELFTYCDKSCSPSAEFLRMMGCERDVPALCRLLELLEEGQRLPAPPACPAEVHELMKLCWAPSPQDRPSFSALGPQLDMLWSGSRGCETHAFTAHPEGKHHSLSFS

For `CCCC(Nc1cncc(-c2ccc(O)c(OC)c2)n1)c1cc(C)ccc1C` (stereo not drawn), the IC50 in experiment [1], in experiment [2], in experiment [3], in experiment [5] and in experiment [6] was no more than 20 µM in each case. The “Tubulin (inhibition of tubulin polymerisation)” value in experiment [4] is “+ (inhibited tubulin polymerisation by greater than 50% at 50 μM)”.

For `CCCC(Nc1cncc(-c2ccc(O)c(OC)c2)n1)c1ccc(OC)nc1` (stereo not drawn), the IC50 was no more than 20 µM in experiment [1]; no more than 20 µM in experiment [2]; greater than 20 µM in experiment [3]; no more than 20 µM in experiment [5]; no more than 20 µM in experiment [6]. Also, the “Tubulin (inhibition of tubulin polymerisation)” value in experiment [4] is listed as “+ (inhibited tubulin polymerisation by greater than 50% at 50 μM)”.

Consider `CCCC(Nc1cncc(-c2ccc(NC(C)=O)c(OC)c2)n1)c1ccc(F)cc1` (stereo not drawn), for which the IC50 in experiment [1], in experiment [2], in experiment [3], in experiment [5] and in experiment [6] was no more than 20 µM throughout. Moreover, the “Tubulin (inhibition of tubulin polymerisation)” value in experiment [4] is reported as “+ (inhibited tubulin polymerisation by greater than 50% at 50 μM)”.

For the molecule `CCCC(Nc1cncc(-c2cc(C)c(O)c(C)c2)n1)c1ccc(F)cc1` (stereo not drawn), the IC50 in experiment [1], in experiment [2], in experiment [3], in experiment [5] and in experiment [6] was no more than 20 µM throughout. Besides, the “Tubulin (inhibition of tubulin polymerisation)” value in experiment [4] was “+ (inhibited tubulin polymerisation by greater than 50% at 50 μM)”.

In the case of `CCCC(Nc1cncc(-c2cc(C)c(OCCN(CC)CC)c(C)c2)n1)c1ccc(F)cc1` (stereo not drawn), the IC50 in experiment [1], in experiment [2], in experiment [3], in experiment [5] and in experiment [6] was no more than 20 µM throughout. Also, in experiment [4], the “Tubulin (inhibition of tubulin polymerisation)” value is “+ (inhibited tubulin polymerisation by greater than 50% at 50 μM)”.
